2 molecules from patent US9394338B2, “Glutathione analogs and uses thereof” (REGENTS OF THE UNIVERSITY OF MINNESOTA, priority 2011, dated 2016) can be followed below.

Data set [1] relates to SH-SY-5Y cells. Briefly: H2O2 and MG-induced cellular oxidative stress (DCFH-DA). It counts as cell-based, human. The note with it: for intracellular ROS after H2O2 exposure: H2O2 500 μM, co-incubation with 250 μM compound; for ROS generated by MG treatment: MG 1 mM, 180 min, 250 μM compound. On the procedure:
H2O2 and MG-Induced Cellular Oxidative Stress. SH-SY-5Y cells were cultured in 96-well black plates at the density of 10,000 cells/well and were allowed to reach confluence (˜48 h). The cells were then treated with a solution of 2,7-dichlorofluorescin diacetate (DCFH-DA, 20 μM) in RPMI 1640 medium without FBS for 45 min. Extracellular DCFH-DA was removed by washing twice with PBS. To induce oxidative stress, the cells were treated with hydrogen peroxide (500 μM) or methylglyoxal (1 mM) in RPMI media without FBS in presence and absence of GSH or Ψ-GSH (250 μM) for 90 min or 180 min at 37° C. in the dark. The cells were washed with PBS and then lysed by adding 250 μl of 90% DMSO/10% PBS for 10 min in the dark at room temperature with shaking. The fluorescence intensity in each well was measured in the fluorescence plate reader (BioTek SynergyHT, VT, USA) at an excitation of 485 nm and an emission of 538 nm and normalized to the protein content in each well as determined by the BCA assay. (Wang et al., Free Radic. Res. 2008, 42, 435-441)

The subject of data set [2] is SH-SY-5Y cells. Description: Protection against H2O2 cytotoxicity, MTT assay. It counts as cell-based, human. The conditions noted are these: preincubation 24 h, H2O2 50 μM 30 min. On the procedure: Similar procedures were used for determining the protective effect of GSH and its analog against H2O2 cytotoxicity. After preincubation of cells with GSH or Ψ-GSH for 24 hours, cells were exposed to H2O2 (50 μM) for 30 min and the media was replaced with fresh media. Cells were incubated for an additional 24 h after which the cell viability was the determined by the MTT assay as described earlier.

For data set [3], the system named is equine kidney γ-glutamyltranspeptidase. Description: γ-Glutamyltranspeptidase assay (stability to γ-GT mediated degradation). It counts as in vitro ADME. On the procedure: γ-Glutamyltranspeptidase Assay. […] The plates were developed alongside authentic predicted degradation products with the solvent system: 4:1.5:2; Butanol/Acetic acid/Water. Visual detection of TLC spots was performed under UV and also by iodine and fluorescamine staining solution.

Data set [4] relates to SH-SY-5Y cells. Description: Determination of intracellular MG concentration after glucose treatment. Format: cell-based, human. The conditions noted are these: 50 mM glucose three days, compound 500 μM. On the procedure:
Determination of Intracellular MG Concentration. SHSY5Y cells were seeded in a T150 flask and allowed to grow for 24 h. The next day, cells were treated with glucose (50 mM) in the presence and the absence of GSH or Ψ-GSH (500 μM). Cells without glucose treatment were used as a control. After 3 days of treatment, the cell pellet was collected and sonicated in 1 mL of PBS buffer to obtain cell lysates, which were derivatized as follows: 1 mL of cell lysate+0.2 mL 5 M HClO4+0.2 mL 10 mM 1,2 diaminobenzene+0.1 mL 1 μM 5-methylquinoxaline (internal std.)+0.5 mL water to 2 mL final volume. Samples were incubated at room temperature overnight and then centrifuged. The supernatant was passed through a C-18 SPE cartridge which had been prepared by flushing 2-4 mL of acetonitrile followed by 2-4 mL of 10 mM KH2PO4 (pH 2.4). After evaporation of the acetonitrile layer, the solid obtained was redissolved in 0.2 mL of 20% acetonitrile in 10 mM KH2PO4 (pH=2.4). The concentration of MG derivative, 2-methylquinoxaline, was measured using a Beckman Coulter Gold chromatography system. The column was Varian Microsorb-MV 300-5 25 cm C18 column (4.6 mm internal diameter and 5 μm particle diameter). The mobile phase was 80 vol % of 10 mM KH2PO4 and 20 vol % of HPLC grade acetonitrile. […]

The target in data set [5] is T1, yeast glyoxalase I (Saccharomyces cerevisiae, UniProt P50107).
T1 construct: purchased Sigma
T1 sequence (P50107 1-326): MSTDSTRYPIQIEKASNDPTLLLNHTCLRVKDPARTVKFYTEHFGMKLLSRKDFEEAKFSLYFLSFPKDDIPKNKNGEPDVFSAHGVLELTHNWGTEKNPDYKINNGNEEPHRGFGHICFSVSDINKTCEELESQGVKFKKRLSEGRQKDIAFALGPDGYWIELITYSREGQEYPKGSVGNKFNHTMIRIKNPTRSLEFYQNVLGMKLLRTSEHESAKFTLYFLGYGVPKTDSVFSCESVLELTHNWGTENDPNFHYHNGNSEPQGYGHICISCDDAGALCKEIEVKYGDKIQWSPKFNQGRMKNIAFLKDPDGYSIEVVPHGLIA
Description: Glyoxalase I enzyme kinetics assay. It counts as biochemical. The conditions noted are these: yeast Glx-I, MG, 30° C., phosphate buffer pH 6.6. As for the experimental part: Glyoxalase I Enzyme Kinetics Assay. The glutathione analog, Ψ-GSH and asparthione were examined for their ability to act as substrates for the yeast glyoxalase I mediated […] of MG. The commercial 40% methylglyoxal solution was distilled to remove polymerization products. Enzyme assays were performed (30° C., 0.05 M phosphate buffer (pH 6.6)) using a thermostated Beckman DU® 7400 spectrophotometer. Fresh solutions of GSH, Ψ-GSH and asparthione were prepared on the day of the assays with distilled, deionized water. In each assay, the cell contained a total volume of 3.0 mL which was no more than 6.0 mM with respect to methylglyoxal and 1.3 mM with respect to GSH or its analogs. […] Data were analyzed utilizing an Enzyme kinetics module of Sigmaplot 9.0 from Systat Software Inc.

As to `N[C@@H](CCC(=O)N[C@@H](CS)C(=O)NCC(=O)O)C(=O)O` [GSH, Glutathione], in data set [1], the “intracellular ROS after H2O2 exposure” value is listed as “reduction in ROS to the levels in control cells” and the “ROS generated by MG treatment” value is listed as “neutralized effectively”. Besides, in data set [2], the “protection against peroxide cytotoxicity” value is given as “dose-dependent protection”. Also, the “time to complete degradation by γ-GT” value in data set [3] (incubation with γ-GT) is not above 30 min. Also, the “glucose-induced intracellular MG accumulation” value in data set [4] is reported as “prevented glucose-induced intracellular MG accumulation”. Besides, the “slope for initial velocity vs. substrate concentration” value in data set [5] came to 0.1954±0.0216.
In the case of `N[C@@H](CNC(=O)N[C@@H](CS)C(=O)NCC(=O)O)C(=O)O` [Ψ-GSH, γ-Gla-Cys-Gly-OH], in data set [1], the “intracellular ROS after H2O2 exposure” value is reported as “reduction in ROS to the levels in control cells” and the “ROS generated by MG treatment” value was “neutralized effectively”. In addition, in data set [2], the “protection against peroxide cytotoxicity” value is listed as “dose-dependent protection”. In addition, the “degradation during incubation with γ-GT” value in data set [3] (incubation with γ-GT for up to 24 h) is given as “No appreciable degradation”. In addition, the “glucose-induced intracellular MG accumulation” value in data set [4] is reported as “prevented glucose-induced intracellular MG accumulation”. Moreover, the “slope for initial velocity vs. substrate concentration” value in data set [5] came out at 0.0498±0.0040.
